Measured values as given in article PMC9681820, “A PDE10A inhibitor CPL500036 is a novel agent modulating striatal function devoid of most neuroleptic side-effects” (Frontiers in Pharmacology, 2022).

Tests used:
[1] = tested on: cardiac 3D spheroids (cardiomyocytes and fibroblasts derived from human pluripotent cells); assay: Cardiotoxicity in spontaneously beating cardiac 3D spheroids; type: cell-based
Procedure: The cardiotoxic effect of CPL500036 was evaluated in spontaneously beating cardiac 3D spheroids (comprising cardiomyocytes and fibroblasts derived from human pluripotent cells) by Cyprotex (Cheshire, United Kingdom). Experiments were carried out in accordance with the service-provider’s protocol. Specific parameters of cell health were assessed: number and size of spheroids, DNA structure, intracellular level of calcium ions, mitochondrial mass, membrane potential and cellular ATP. […] During the 14 days of the experiment, redosing occurred on three occasions. Spheroid hypertrophy was measured on days 3, 7, 10, and 14 using the “brightfield live cellular imaging” mode of a Cellomics ArrayScan® XTI system (Thermo Scientific, Waltham, MA, United States). On day-14, the spheroid model was analyzed using the confocal mode of Cellomics ArrayScan XTI following incorporation of appropriate fluorescent dyes. Subsequently, cellular ATP content was measured using CellTiterGlo® (Promega, Fitchburg, WI, United States). Mitomicyn C and dasatinib were used as positive controls (Supplementary Table S1).
concentration at which 50% maximum effect is observed for each cell health parameter; NR - No response observed.

[2] = tested on: Wistar Han rats; assay: Glucose tolerance test; type: in vivo; conditions: 0.3 mg/kg, 1 mg/kg, and 3 mg/kg, p.o., 2 h before glucose bolus, n = 8
Procedure: Thirty-two male Wistar Han rats (∼10 weeks; Tri-City Academic Laboratory Animal Centre-Research and Services Centre, Medical University of Gdansk) were fasted for 16 h before experimentation. Animals underwent gavage with CPL500036 (0.3 mg/kg, 1 mg/kg or 3 mg/kg) or vehicle 2 h before receiving a glucose bolus (2 g/kg, i.p.; MilliporeSigma). Olanzapine (10 mg/kg) was used as an active comparator and delivered (s.c.) 30 min before the glucose bolus. Blood samples from the tail vein were collected from each rat right before drug administration, just before glucose loading as well as 15 min, 30 min, 60 min, 120 min, and 180 min after glucose administration. The glucose concentration was measured using a glucometer (Accu-ChekGo, Roche Diagnostics, Mannheim, Germany).

Cc1ncc(C)n2nc(-c3ccn4cc(-c5ccccc5)nc4n3)nc12 [CPL500036, 7-[5,8-Dimethyl-(1,2,4)triazolo (1,5-a)pyrazin-2-yl]-2-phenylimidazo (1,2-a) pyrimidine]
effect on the number or size of spheroids, intracellular calcium concentration, mitochondrial mass, membrane potential or intracellular ATP ([1]; 0.0457 μM–100 µM): no effect | IC50 ([1]; Homo sapiens, 3D cardiac spheroids, 0.0457 μM–100 µM, read-out: IC50, impaired DNA structure): 37.4 µM | AC50 ([1]; Homo sapiens, 3D cardiac spheroids, read-out: DNA structure AC50): 37.4 µM | effect on the glucose level, glucose-tolerance test [2]: has no effect on the glucose level
